Measurements published in patent US20240018150A1.

What was measured:
TMD8 cells = assay: Cell assay, in-vitro inhibition of TMD8 cells (CellTiter-Glo); format: cell-based; conditions: Homo sapiens, 2000 cells/well, 72 hrs, read-out: TMD8 (IC50, in-vitro inhibitory test on cells)
Protocol: (§1) Plating: The cells were suspended in serum-free medium and counted with automatic cell counter. According to the seeding density, the cell suspension was diluted to the required density. 95 μL cell (2000 cells/well) was added to each well, and incubated at 5% CO2 and 37° C.
(§2) Preparation of compound solution: The compound was prepared into a diluted solution of 1000× final concentration with dimethyl sulfoxide. The test concentrations of the compound were 10000, 3333.33, 1111.11, 370.37, 123.46, 41.15, 13.72, 4.57, 1.52, and 0.51 nM. The compound was diluted with the culture medium to prepare a compound solution of 20× final concentration. 5 uL of the compound solution was added to each well, and the same volume of dimethyl sulfoxide was added to the control well. The cells were incubated at 37° C. and 5% CO2 for 72 hrs.
(§3) Detection: The cell plate equilibrated to room temperature, 40 μl of CellTiter-Glo® reagent was added to each well, shaken for 2 min, allowed to stand for 10 min, and detected with SpectraMax Paradigm.
(§4) Data Analysis • (1) The IC50 value was calculated using GraphPad Prism 5. • (2) % Inh=(Max signal−Compound signal)/(Max signal−Min signal)×100. • (3) Max signal was a value of the positive control well in which only DMSO of the same volume with the compound solution was present. • (4) Min signal was a value of the negative control well in which only the culture medium was present.

[1] = system: Ba/F3-BCR-BTK-C481S cells; assay: Cell assay, in-vitro inhibition of Ba/F3-BCR-BTK-C481S cells (CellTiter-Glo); format: cell-based; conditions: 2000 cells/well, 72 hrs, read-out: Ba/F3-BCR-BTK-C481S (IC50, in-vitro inhibitory test on cells)
Protocol: as §1, §2, §3, §4

BTK kinase = BTK kinase (Homo sapiens, UniProt Q06187); assay: Inhibitory activity test on BTK kinase (electrophoretic mobility shift assay); format: biochemical; conditions: Caliper EZ ReaderII, enzyme and compound 10 min at room temperature, read-out: BTK (IC50, in-vitro inhibitory test on kinase)
BTK kinase, sequence (Q06187 whole entry): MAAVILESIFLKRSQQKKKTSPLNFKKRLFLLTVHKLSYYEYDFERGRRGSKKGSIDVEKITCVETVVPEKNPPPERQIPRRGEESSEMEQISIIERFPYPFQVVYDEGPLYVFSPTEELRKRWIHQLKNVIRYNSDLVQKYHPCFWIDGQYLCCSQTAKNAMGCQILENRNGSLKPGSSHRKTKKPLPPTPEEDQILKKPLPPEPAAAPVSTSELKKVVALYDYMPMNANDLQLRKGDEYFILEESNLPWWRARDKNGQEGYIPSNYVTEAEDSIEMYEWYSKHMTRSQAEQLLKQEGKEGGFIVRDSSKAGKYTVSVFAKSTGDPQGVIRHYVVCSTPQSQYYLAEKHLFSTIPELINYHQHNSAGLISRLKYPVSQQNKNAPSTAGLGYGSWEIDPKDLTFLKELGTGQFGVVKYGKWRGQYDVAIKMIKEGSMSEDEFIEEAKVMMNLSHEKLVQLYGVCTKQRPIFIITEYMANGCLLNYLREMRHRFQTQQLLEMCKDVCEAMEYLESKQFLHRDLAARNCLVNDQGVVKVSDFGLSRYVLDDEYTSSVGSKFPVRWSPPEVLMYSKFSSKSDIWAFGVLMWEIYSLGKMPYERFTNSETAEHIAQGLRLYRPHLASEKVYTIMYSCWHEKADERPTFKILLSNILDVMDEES

Row | Structure (SMILES) | IC50 (TMD8 cells) [nM] | IC50 [1] [nM] | IC50 (BTK kinase) [nM]
1 | O=C(c1ccc(Oc2ccccc2)cc1Cl)c1c[nH]c2ncnc(N[C@@H]3CC[C@@H](CO)OC3)c12 [ARQ531, reference compound] | 111 | 447 | 
2 | O=C(c1ccc(Oc2ccccc2)cc1Cl)c1c[nH]c2nccc(N[C@H]3CC[C@H](C(=O)O)CC3)c12 [Compound I-5, (1r, 4r)-4-((3-(2-chloro-4-phenoxybenzoyl)-1H-pyrrolo[2,3-b]pyridin-4-yl)amino)cyclohexane-1-carboxylic acid] |  |  | 9
3 | O=C(c1ccc(Oc2ccccc2)cc1Cl)c1c[nH]c2nccc(N[C@H]3CC[C@@H](C(=O)O)CC3)c12 [Compound I-6, (1s, 4s)-4-((3-(2-chloro-4-phenoxybenzoyl)-1H-pyrrolo[2,3-b]pyridin-4-yl)amino)cyclohexane-1-carboxylic acid] |  |  | 2.7
4 | O=C(c1ccc(Oc2ccccc2)cc1)c1c[nH]c2nccc(N[C@H]3CC[C@@H](C(=O)O)CC3)c12 [Compound I-8, (1s, 4s)-4-((3-(4-phenoxybenzoyl)-1H-pyrrolo[2,3-b]pyridin-4-yl)amino)cyclohexane-1-carboxylic acid] |  |  | 7.1
5 | O=C(c1ccc(Oc2ccccc2)cc1Cl)c1c[nH]c2nccc(N[C@H]3C[C@@H](C(=O)O)C3)c12 [Compound I-11, (1s, 3s)-3-((3-(2-chloro-4-phenoxybenzoyl)-1H-pyrrolo[2,3-b]pyridin-4-yl)amino)cyclobutane-1-carboxylic acid] |  |  | 6.2
6 | O=C(c1ccc(Oc2ccccc2)cc1Cl)c1c[nH]c2nccc(NC3CCNCC3)c12 [Compound I-22, (2-chloro-4-phenoxyphenyl)(4-(piperidin-4-ylamino)-1H-pyrrolo[2,3-b]pyridin-3-yl)methanone] |  |  | 9.5
7 | O=C(c1ccc(Oc2ccccc2)cc1Cl)c1c[nH]c2nccc(N[C@@H]3CCCNC3)c12 [Compound I-23, (R)-(2-chloro-4-phenoxyphenyl)(4-(piperidin-3-ylamino)-1H-pyrrolo[2,3-b]pyridin-3-yl)methanone] |  |  | 48
8 | O=C(c1ccc(Oc2ccccc2)cc1Cl)c1c[nH]c2nccc(N[C@H]3CC[C@H](O)CC3)c12 [Compound I-24, (2-chloro-4-phenoxyphenyl)(4-(((1r, 4r)-4-hydroxycyclohexyl)amino)-1H-pyrrolo[2,3-b]pyridin-3-yl)methanone] |  |  | 52
9 | O=C(c1ccc(Oc2ccccc2)cc1Cl)c1c[nH]c2nccc(NCCOCCO)c12 [Compound I-28, (2-chloro-4-phenoxyphenyl)(4-((2-(2-hydroxyethoxy)ethyl)amino)-1H-pyrrolo[2,3-b]pyridin-3-yl)methanone] |  |  | 110
10 | O=C(c1ccc(Oc2ccccc2)cc1Cl)c1c[nH]c2nccc(N[C@H]3CC[C@H](CO)CC3)c12 [Compound I-30, (2-chloro-4-phenoxyphenyl)(4-(((1r, 4r)-4-(hydroxymethyl)cyclohexyl)amino)-1H-pyrrolo[2,3-b]pyridin-3-yl)methanone] |  |  | 95
11 | O=C(c1ccc(Oc2ccccc2)cc1Cl)c1c[nH]c2nccc(N[C@H]3CC[C@@H](CO)CC3)c12 [Compound I-31, (2-chloro-4-phenoxyphenyl)(4-(((1s, 4s)-4-(hydroxymethyl)cyclohexyl)amino)-1H-pyrrolo[2,3-b]pyridin-3-yl)methanone] |  |  | 28
12 | O=C(c1ccc(Oc2ccccc2)cc1Cl)c1c[nH]c2nccc(N[C@@H]3CC[C@@H](CO)OC3)c12 [Compound I-32, (2-chloro-4-phenoxyphenyl)(4-(((3R, 6S)-6-(hydroxymethyl)tetrahydro-2H-pyran-3-yl)amino)-1H-pyrrolo[2,3-b]pyridin-3-yl)methanone] |  |  | 11
13 | O=C(c1ccc(Oc2ccccc2)cc1)c1c[nH]c2nccc(N[C@H]3CC[C@@H](CO)CC3)c12 [Compound I-33, (4-(((1s, 4s)-4-(hydroxymethyl)cyclohexyl)amino)-1H-pyrrolo[2,3-b]pyridin-3-yl)(4-phenoxyphenyl)methanone] |  |  | 80
14 | CNC(=O)[C@H]1CC[C@H](Nc2ccnc3[nH]cc(C(=O)c4ccc(Oc5ccccc5)cc4Cl)c23)CC1 [Compound I-35, (1r, 4r)-4-((3-(2-chloro-4-phenoxybenzoyl)-1H-pyrrolo[2,3-b]pyridin-4-yl)amino)-N-methylcyclohexane-1-carboxamide] |  |  | 22
15 | NS(=O)(=O)N1CCC(Nc2ccnc3[nH]cc(C(=O)c4ccc(Oc5ccccc5)cc4Cl)c23)CC1 [Compound I-37, 4-((3-(2-chloro-4-phenoxybenzoyl)-1H-pyrrolo[2,3-b]pyridin-4-yl)amino)piperidin-1-sulfonamide] |  |  | 141
16 | CS(=O)(=O)N1CCC(Nc2ccnc3[nH]cc(C(=O)c4ccc(Oc5ccccc5)cc4Cl)c23)CC1 [Compound I-38, (2-chloro-4-phenoxyphenyl)(4-((1-(methanesulfonyl)piperidin-4-yl)amino)-1H-pyrrolo[2,3-b]pyridin-3-yl)methanone] |  |  | 242
17 | N[C@H]1CC[C@H](Nc2ccnc3[nH]cc(C(=O)c4ccc(Oc5ccccc5)cc4Cl)c23)CC1 [Compound I-73, (4-(((1r, 4r)-4-aminocyclohexyl)amino)-1H-pyrrolo[2,3-b]pyridin-3-yl)(2-chloro-4-phenoxyphenyl)methanone] |  |  | 16
18 | N[C@H]1CC[C@@H](Nc2ccnc3[nH]cc(C(=O)c4ccc(Oc5ccccc5)cc4Cl)c23)CC1 [Compound I-74, (4-(((1s, 4s)-4-aminocyclohexyl)amino)-1H-pyrrolo[2,3-b]pyridin-3-yl)(2-chloro-4-phenoxyphenyl)methanone] | 65.9 | 52 | 2.8
19 | CC(=O)N[C@H]1CC[C@@H](Nc2ccnc3[nH]cc(C(=O)c4ccc(Oc5ccccc5)cc4Cl)c23)CC1 [Compound I-87, N-((1s, 4s)-4-((3-(2-chloro-4-phenoxybenzoyl)-1H-pyrrolo[2,3-b]pyridin-4-yl)amino)cyclohexyl)acetamide] | 114 | 103 | 
20 | CN[C@H]1CC[C@@H](Nc2ccnc3[nH]cc(C(=O)c4ccc(Oc5ccccc5)cc4Cl)c23)CC1 [Compound I-89] | 97.7 | 68.6 | 
